Laboratory results reported in patent US11266711B2, “Oxytocin compositions and methods of use” (Elgan Pharma Ltd, priority 2018, dated 2022).
Structures can show the parent of a compound that is named as a salt. Numbered stars: 1 amine (or outer) side, 2 acyl side, 3 side chain; on linkers, the order of the positions; unused ones are H or OH. Bridge positions count the residues as written; N and C are the ends. Peptide text beside a SMILES is read from it. X1 = O=C(CCC[*:2])[*:1]

What was measured:
[1] = cited from earlier work
[2] = system: rat pups chronically exposed to morphine prenatally; test: Naloxone-induced withdrawal in rat pups exposed to morphine prenatally (Example 1); assay type: in vivo, Sprague-Dawley rats
[3] = system: rat pups chronically exposed to morphine prenatally; assay type: in vivo, Sprague-Dawley rats; conditions: 2 mg/kg s.c. daily, first 10 postnatal days; survival measured for 15 days; vs saline (FIG. 2a)
[4] = system: rat pups chronically exposed to fluoxetine prenatally; test: Survival and body weight, rat pups exposed to fluoxetine prenatally (Example 4); assay type: in vivo, Sprague-Dawley rats; conditions: 2 mg/kg s.c. daily
[5] = system: adolescent rats chronically exposed to fluoxetine prenatally; test: Passive Avoidance Test, adolescent rats exposed to fluoxetine prenatally (Example 5); assay type: in vivo; conditions: 2 mg/kg s.c. daily, first 10 postnatal days; tested postnatal days 31-35; vs saline (FIG. 5)
[6] = system: adolescent rats chronically exposed to fluoxetine prenatally; test: Locomotor activity, adolescent rats exposed to fluoxetine prenatally (Example 5); assay type: in vivo; conditions: 2 mg/kg s.c. daily, first 10 postnatal days; tested postnatal days 31-35; vs saline (data not shown)
[7] = system: adolescent rats chronically exposed to fluoxetine prenatally; test: Light/Dark Box, adolescent rats exposed to fluoxetine prenatally (Example 5); assay type: in vivo; conditions: 2 mg/kg s.c. daily, first 10 postnatal days; tested postnatal days 31-35; vs saline (data not shown)
[8] = system: rat pups chronically exposed to morphine prenatally; assay type: in vivo, Sprague-Dawley rats; conditions: all three doses (0.3, 1, 2 mg/kg) s.c. daily, first 10 postnatal days; vs saline (FIG. 6a)
[9] = system: rat pups chronically exposed to morphine prenatally; test: Locomotor activity during withdrawal, rats exposed to morphine prenatally (Example 7); assay type: in vivo
[10] = system: adolescent rats chronically exposed to morphine prenatally; test: Light-Dark Box, adolescent rats exposed to morphine prenatally (Example 8); assay type: in vivo; conditions: 0.3 mg/kg s.c. daily, first 10 postnatal days; tested postnatal days 31-35; vs saline (FIG. 8a)
[11] = system: adolescent rats chronically exposed to morphine prenatally; test: Passive Avoidance Test, adolescent rats exposed to morphine prenatally (Example 8); assay type: in vivo; conditions: 2 mg/kg s.c. daily, first 10 postnatal days; tested postnatal days 31-35; vs saline (FIG. 8b)
[12] = system: adolescent rats chronically exposed to morphine prenatally; test: Automated Three-Chamber Test, adolescent rats exposed to morphine prenatally (Example 9); assay type: in vivo; conditions: first 10 postnatal days, tested postnatal days 31-35
Excerpt: (§1) Briefly, the Three-Chamber Test assesses cognition in the form of social novelty and social memory; Social novelty occurs in three sessions within a three-chambered box with openings between the chambers. After habituation to the empty box, the test animal encounters a novel conspecific under one pencil cup and an empty pencil cup. The test animal then encounters the familiar conspecific and a second novel conspecific under the previously empty pencil cup; Animals that show intact social novelty behavior will show a preference to investigate the novel conspecific; Twenty-four hours later, social memory is tested by placing the test animal back in to the chamber with the two familiar conspecifics; Animals with intact social memory will spend an equal amount of time investigating the two familiar conspecifics. Duration of time spent investigating conspecifics is measured automatically using a SmartCage™.

[13] = system: adolescent rats chronically exposed to diazepam prenatally; test: Automated Three-Chamber Test, adolescent rats exposed to diazepam prenatally (Example 13); assay type: in vivo; conditions: first 10 postnatal days, tested postnatal days 31-35
Excerpt: as §1

healthy rats = test: Survival and body weight during development in healthy rats (Example 14); assay type: in vivo, Sprague-Dawley rats; conditions: 0.3, 1 or 2 mg/kg daily, first 10 postnatal days; drug naive pups
[14] = system: rat pups chronically exposed to diazepam prenatally; conditions: 2 mg/kg s.c. daily, first 10 postnatal days
[15] = system: adolescent rats chronically exposed to diazepam prenatally; test: Light-Dark Box, adolescent rats exposed to diazepam prenatally (Example 12); conditions: 1 mg/kg and 2 mg/kg s.c., first 10 postnatal days; tested postnatal days 31-35; vs saline (FIG. 12a)
[16] = system: adolescent rats chronically exposed to diazepam prenatally; test: Passive Avoidance Test, adolescent rats exposed to diazepam prenatally (Example 12); conditions: all doses (0.3, 1, 2 mg/kg) s.c., first 10 postnatal days; tested postnatal days 31-35; vs saline (FIG. 12b)
Excerpt: Briefly, in the Passive Avoidance Test an animal learns to avoid an unpleasant stimulus by inhibiting locomotion and exploration; On the training day, rats are placed in a brightly lit compartment of a test chamber; The animal quickly moves in to an adjacent dark compartment of the test chamber and receives an unavoidable mild foot shock; Twenty-four hours later during the test phase, the animals are again placed in to the light compartment and the latency to re-enter the dark compartment is measured. Latency to enter a compartment is automatically measured using a SmartCage™.

[17] = system: rat pups chronically exposed to diazepam prenatally; test: Locomotor activity during withdrawal, rats exposed to diazepam prenatally (Example 11)
Method: Briefly, locomotor activity is measured by placing an animal in to a small standardized test chamber for a five-minute period. Distance travelled, and time spent active is measured automatically using a SmartCage™.

[18] = system: rat pups chronically exposed to diazepam prenatally; test: Survival and body weight, three oxytocin doses, rat pups exposed to diazepam prenatally (Example 10); conditions: first 10 postnatal days
[19] = system: infants of mothers who took the drug during the first 42 days of pregnancy; conditions: mothers took the drug during the first 42 days of pregnancy; other drugs 4.6 per 100, no drugs 2.6 per 100; cited from earlier work
oxytocin receptor [20] = molecular target: T1, oxytocin receptor (Homo sapiens, UniProt P30559); conditions: cited from earlier work
T1 sequence (P30559 whole entry, species assumed): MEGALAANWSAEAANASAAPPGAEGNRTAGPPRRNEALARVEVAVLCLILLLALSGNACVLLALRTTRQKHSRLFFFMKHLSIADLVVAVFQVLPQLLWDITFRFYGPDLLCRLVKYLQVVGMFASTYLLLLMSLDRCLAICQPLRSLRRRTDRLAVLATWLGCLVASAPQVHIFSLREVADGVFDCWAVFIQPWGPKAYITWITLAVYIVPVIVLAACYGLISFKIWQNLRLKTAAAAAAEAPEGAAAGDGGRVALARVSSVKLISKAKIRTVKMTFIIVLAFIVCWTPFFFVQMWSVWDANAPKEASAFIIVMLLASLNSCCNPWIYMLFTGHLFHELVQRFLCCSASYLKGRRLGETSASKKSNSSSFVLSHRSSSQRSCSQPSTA

oxytocin receptor [21] = molecular target: T1, oxytocin receptor; conditions: cited from earlier work; remark: listed apart in the source
[22] = 1 or 2 mg/kg s.c. daily, vs saline (FIG. 7a)

Structure (SMILES): O=C1Nc2ccc(Cl)cc2C(c2ccccc2Cl)=NC1O (centres unmarked) [Lorazepam]
- half-life in adults ([1]; adults): about 12 hours

Structure (SMILES): CC[C@H](C)[C@@H]1NC(=O)[C@H](Cc2ccc(O)cc2)NC(=O)[C@@H](N)CSSC[C@@H](C(=O)N2CCC[C@H]2C(=O)N[C@@H](CC(C)C)C(=O)NCC(N)=O)NC(=O)[C@H](CC(N)=O)NC(=O)[C@H](CCC(N)=O)NC1=O [oxytocin]
- locomotor activity ([2]; single dose 2 mg/kg s.c. after naloxone, postnatal day one, up to 30 minutes post-naloxone, vs saline (FIG. 1a)): clear statistically significant reduction
- scores of rolling behavior ([2]; single dose 2 mg/kg s.c., up to 45 minutes, vs saline (FIG. 1b)): numerical reduction
- scores of curling behavior ([2]; single dose 2 mg/kg s.c., up to 45 minutes, vs saline (FIG. 1c)): numerical reduction
- percentage survival rates at postnatal day 10 ([2]; single dose 2 mg/kg s.c., vs saline (FIG. 1d)): improved percentage survival rates
- percentage survival rates [3]: clear statistically significant improvement
- percentage survival rates ([4]; first 10 postnatal days, survival measured for 15 days, vs saline (FIG. 4a)): statistical trend towards improvement
- body weight at postnatal day 36 ([4]; first 10 postnatal days, vs saline (FIG. 4c)): clear statistically significant reduction
- body weights during the first 10 postnatal days ([4]; vs saline (FIG. 4b)): comparable
- learning and memory function (latency to enter chamber paired with foot shock) [5]: clear statistically significant improvement
- locomotor activity [6]: No meaningful differences
- anxiety-like behavior [7]: No meaningful differences
- percentage survival rates for the first 30 postnatal days [8]: clear statistically significant improvement
- locomotor activity at postnatal day 30 ([9]; 0.3, 1 or 2 mg/kg s.c. daily, first 10 postnatal days, between treatment groups (FIG. 7b)): No meaningful differences
- locomotor activity on postnatal day 6 [9, 22]: clear statistically significant increase
- locomotor activity on postnatal days 3 or 9 [9, 22]: not on postnatal days 3 or 9
- anxiety-like behavior (time in the light chamber) [10]: clear statistically significant decrease
- learning and memory function (latency to enter chamber paired with foot shock) [11]: numerical improvement
- social memory function (time investigating a familiar conspecific) ([12]; 2 mg/kg s.c. daily, vs saline (FIG. 9b)): statistical trend towards improved social memory function
- social novelty behavior (time investigating a novel conspecific) ([12]; all doses (0.3, 1, 2 mg/kg) s.c. daily, vs saline (FIG. 9a)): trend towards increased social novelty behavior
- social memory function (time investigating a familiar conspecific) ([13]; 2 mg/kg s.c. daily, vs saline (FIG. 13b)): statistical trend toward improved social memory function
- social novelty behavior (time investigating a novel animal) ([13]; 1 and 2 mg/kg s.c. daily, vs saline (FIG. 13a)): clear statistically significant increase
- survival for the first 30 postnatal days (healthy rats): survived for the first 30 postnatal days
- percentage survival rates ([14]; survival measured for 15 days, vs saline (FIG. 3a)): clear statistically significant improvement
- body weight, various time points of the dosing period ([14]; vs saline (FIG. 3b)): clear statistically significant increase
- body weight at postnatal day 31 ([14]; vs saline (FIG. 3c)): clear statistically significant decrease
- anxiety-like behavior (time in the light chamber) [15]: clear statistically significant reduction
- learning and memory function (latency to enter chamber paired with foot shock) [16]: clear statistically significant improvement
- locomotor activity on postnatal day 6 ([17]; 0.3 mg/kg and 2 mg/kg s.c. daily, vs saline (FIG. 11a)): clear statistically significant decrease
- locomotor activity on postnatal day 30 ([17]; 2 mg/kg s.c. daily, first 10 postnatal days, vs saline (FIG. 11b)): clear statistically significant decrease
- locomotor activity on postnatal day 9 ([17]; 2 mg/kg s.c. daily, vs saline (FIG. 11a)): clear statistically significant decrease
- locomotor activity on postnatal days 3 and 6 ([17]; all three doses (0.3, 1, 2 mg/kg) s.c. daily, vs saline): clear statistically significant decrease
- percentage survival rates for the first 30 postnatal days ([18]; 2 mg/kg s.c. daily, vs saline (FIG. 10a)): clear statistically significant improvement
- body weight throughout the first 30 postnatal days ([18]; all three doses (0.3, 1, 2 mg/kg) s.c. daily, vs saline (FIG. 10b)): clear statistically significant decrease

Structure (SMILES): CNC1=Nc2ccc(Cl)cc2C(c2ccccc2)=[N+]([O-])C1 [chlordiazepoxide, Chlordiazepoxide hydrochloride]
- severe congenital anomalies among infants [19]: 11.4 per 100

Structure (SMILES): Cc1nnc2n1-c1ccc(Cl)cc1C(c1ccccc1)=NC2 [Alprazolam]
- half-life ([1]; in vivo): ten to 24

Structure (SMILES): CC[C@H](C)[C@@H]1NC(=O)[C@H](Cc2ccc(OC)cc2)NC(=O)CCCSC[C@@H](C(=O)N2CCC[C@H]2C(=O)N[C@@H](CC(C)C)C(=O)NCC(N)=O)NC(=O)[C@H](CC(N)=O)NC(=O)[C@H](CCC(N)=O)NC1=O [carbetocin, 1-Butanoic acid-2-(O-methyl-L-tyrosine)-1-carbaoxytocin] (Y(Me)IQNCPLG-NH2; linker N-5 via X1)
- affinity of the oxytocin receptor, compared with oxytocin (oxytocin receptor [20]): equal affinity
- biological effect relative to endogenous or exogenous oxytocin (oxytocin receptor [21]): ~50%
